In ChEMBL document CHEMBL4340562, “Discovery of novel pyridazine derivatives as glucose transporter type 4 (GLUT4) translocation activators” (Bioorg Med Chem Lett, 2019):
The source made the active and inactive calls. No cut-off for these calls is given here.

Assays:
[1] = target: T1, Solute carrier family 2, facilitated glucose transporter member 4 (Rattus norvegicus) (UniProt P19357); test: Induction of GLUT4 translocation in rat L6-GLUT4myc differentiated myotube cells at 3 uM after 20 mins by chemiluminescent method relative to 30 uM 2-(4-(4-(2-methoxyphenyl)-6,7-dihydro-5H-cyclopenta[d]pyridazin-1-ylamino)phenyl)acetamide
T1 sequence (whole entry): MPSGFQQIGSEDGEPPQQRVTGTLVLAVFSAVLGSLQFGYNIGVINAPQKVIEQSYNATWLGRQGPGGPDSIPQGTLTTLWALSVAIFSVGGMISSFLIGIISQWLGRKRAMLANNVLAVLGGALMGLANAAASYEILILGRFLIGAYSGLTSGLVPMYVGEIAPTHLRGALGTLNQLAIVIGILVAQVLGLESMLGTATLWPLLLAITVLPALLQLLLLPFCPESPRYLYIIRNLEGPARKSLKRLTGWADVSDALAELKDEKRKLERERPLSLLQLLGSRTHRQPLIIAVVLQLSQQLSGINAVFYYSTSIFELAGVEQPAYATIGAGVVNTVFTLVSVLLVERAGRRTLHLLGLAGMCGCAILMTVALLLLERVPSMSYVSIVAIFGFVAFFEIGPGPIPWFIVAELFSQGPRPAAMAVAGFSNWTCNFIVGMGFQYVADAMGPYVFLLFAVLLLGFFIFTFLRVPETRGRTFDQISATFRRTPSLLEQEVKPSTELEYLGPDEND

[2] = target: T1, Solute carrier family 2, facilitated glucose transporter member 4 (Rattus norvegicus); test: Induction of GLUT4 translocation in rat L6-GLUT4myc differentiated myotube cells at 30 uM after 20 mins by chemiluminescent method relative to 30 uM 2-(4-(4-phenylphthalazin-1-ylamino)phenyl)acetamide
[3] = Stability of the compound in mouse liver microsomes assessed as parent compound remaining after 30 mins relative to control; format: ADME, Microsome; details: read-out: Stability
[4] = 1-octanol/PBS distribution co-efficient, log D of the compound at pH 7.4; format: physicochemical
[5] = target: T1, Solute carrier family 2, facilitated glucose transporter member 4 (Rattus norvegicus); test: Potency index, ratio of EC50 for 2-(4-(4-(2-methoxyphenyl)-6,7-dihydro-5H-cyclopenta[d]pyridazin-1-ylamino)phenyl)acetamide EC50 to EC50 for test compound for GLUT4 translocation activity in L6-GLUT4myc differentiated myotube cells
[6] = AUC (0 to 4 hrs) in db/db mouse plasma at 3 mg/kg, po measured up to 4 hrs; format: ADME, organism-based; parameters: dose 3 mg/kg, time < 4 hr, route oral
[7] = tested on: Mus musculus; test: Antidiabetic activity in db/db mouse assessed as reduction in fasting plasma glucose level at 30 mg/kg, po measured up to 4 hrs; format: functional
[8] = Cmax in db/db mouse plasma at 3 mg/kg, po measured up to 4 hrs; format: ADME, organism-based; parameters: dose 3 mg/kg, route oral
[9] = AUC (0 to 4 hrs) in db/db mouse plasma at 3 to 30 mg/kg, po measured up to 4 hrs; format: ADME, organism-based; details: in vivo
[10] = tested on: Mus musculus; test: Antidiabetic activity in db/db mouse assessed as reduction in fasting plasma glucose level at 3 mg/kg, po measured up to 4 hrs; format: functional
[11] = tested on: Mus musculus; test: Antidiabetic activity in db/db mouse assessed as reduction in fasting plasma glucose level at 10 mg/kg, po measured up to 4 hrs; format: functional
[12] = tested on: Mus musculus; test: Antidiabetic activity in db/db mouse assessed as reduction in fasting plasma glucose level at 3 to 30 mg/kg, po measured up to 4 hrs; format: functional, organism-based
[13] = tested on: Mus musculus; test: Antidiabetic activity in db/db mouse assessed as reduction in fasting plasma glucose AUC at 30 mg/kg, po measured up to 4 hrs; format: functional, organism-based; parameters: dose 30 mg/kg, time < 4 hr
[14] = Cmax in db/db mouse plasma at 30 mg/kg, po measured up to 4 hrs; format: ADME, organism-based; parameters: dose 30 mg/kg, route oral
[15] = tested on: Mus musculus; test: Antidiabetic activity in db/db mouse assessed as reduction in fasting plasma glucose AUC at 10 mg/kg, po measured up to 4 hrs; format: functional, organism-based; parameters: dose 10 mg/kg, time < 4 hr
[16] = tested on: Mus musculus; test: Antidiabetic activity in db/db mouse assessed as reduction in fasting plasma glucose AUC at 3 mg/kg, po measured up to 4 hrs; format: functional, organism-based; parameters: dose 3 mg/kg, time < 4 hr
[17] = AUC (0 to 4 hrs) in db/db mouse plasma at 30 mg/kg, po measured up to 4 hrs; format: ADME, organism-based; parameters: time < 4 hr, dose 30 mg/kg, route oral
[18] = Cmax in db/db mouse plasma at 10 mg/kg, po measured up to 4 hrs; format: ADME, organism-based; parameters: dose 10 mg/kg, route oral
[19] = Cmax in db/db mouse plasma at 3 to 30 mg/kg, po measured up to 4 hrs; format: ADME, organism-based; details: in vivo
[20] = AUC (0 to 4 hrs) in db/db mouse plasma at 10 mg/kg, po measured up to 4 hrs; format: ADME, organism-based; parameters: dose 10 mg/kg, time < 4 hr, route oral
[21] = target: T1, Solute carrier family 2, facilitated glucose transporter member 4 (Rattus norvegicus); test: Induction of GLUT4 translocation in rat L6-GLUT4myc differentiated myotube cells at 3 uM after 20 mins by chemiluminescent method relative to 2-(4-(4-(2-methoxyphenyl)phthalazin-1-ylamino)phenyl)acetamide

## COc1ccccc1-c1nnc(Nc2ccc(C(N)=O)cc2)c2c1CCC2
[1]
  fold change (FC): 0.1

## COc1ccccc1-c1nnc(Nc2ccc(CC(N)=O)cc2C)c2c1CCC2
[1]
  fold change (FC): 0.52

## COc1ccccc1-c1nnc(Nc2ccc(C3(C(N)=O)CC3)cc2)c2c1CCC2
[1]
  fold change (FC): 0.37

## Cc1ccccc1-c1nnc(Nc2ccc(CC(N)=O)cc2)c2ccccc12
[2]
  fold change (FC): 1.6

## COc1ccccc1-c1nnc(Nc2ccc(C(C)(C)C(N)=O)cc2)c2c1CCC2
[1]
  fold change (FC): 0.3

## COCCOCCOc1ccccc1-c1nnc(Nc2ccc(CC(N)=O)cc2F)c2ccsc12
[3]
  remaining at 0.5 h: 82%
[4]
  logD: 1.8

## COc1cc(CC(N)=O)ccc1Nc1nnc(-c2ccccc2OC)c2c1CCC2
[1]
  fold change (FC): 0.13

## COc1ccccc1-c1nnc(Nc2ccc(CC(N)=O)cc2)c(C)c1C
[2]
  fold change (FC): 3.7

## COc1ccccc1-c1nnc(Nc2ccc(CC(N)=O)cc2Cl)c2c1CCC2
[1]
  fold change (FC): 0.45

## COc1ccccc1-c1nnc(Nc2cccc(CC(N)=O)c2)c2c1CCC2
[1]
  fold change (FC): 0.04

## NC(=O)Cc1ccc(Nc2nnc(-c3ccccc3OCC3COCCO3)c3sccc23)c(F)c1 (stereo unspecified)
[3]
  remaining at 0.5 h: > 100%
[4]
  logD: 1.8

## COc1ccc(-c2nnc(Nc3ccc(CC(N)=O)cc3)c3ccccc23)cc1
[2]
  fold change (FC): inactive

## COc1ccccc1-c1nnc(Nc2ccc(CC(N)=O)cc2)c2ccsc12
[1]
  fold change (FC): 0.97

## NC(=O)Cc1ccc(Nc2nnc(-c3ccccc3OCc3cscn3)c3sccc23)c(F)c1
[3]
  remaining at 0.5 h: 79%
[4]
  logD: 2.6

## COc1ccccc1-c1nnc(Nc2ccc(CC(N)=O)cc2F)c2c1CCC2
[1]
  fold change (FC): 0.85

## COc1ccccc1-c1nnc(Nc2ccc(CC(=O)N(C)C)cc2)c2c1CCC2
[1]
  fold change (FC): 0.09

## COc1cccc(-c2nnc(Nc3ccc(CC(N)=O)cc3)c3ccccc23)c1
[2]
  fold change (FC): 1

## COc1ccccc1-c1nnc(Nc2ccc(CC(N)=O)cc2O)c2c1CCC2
[1]
  fold change (FC): 0.09

## COc1ccccc1-c1nnc(Nc2ccc(CC(N)=O)cc2)c2occc12
[1]
  fold change (FC): 0.46

## COc1ccccc1-c1nnc(Nc2ccc(CC(N)=O)cc2F)c2ccsc12
[5]
  Ratio EC50: 7
[3]
  remaining at 0.5 h: 92%
[4]
  logD: 2.6

## CCc1c(Nc2ccc(CC(N)=O)cc2)nnc(-c2ccccc2OC)c1CC
[2]
  fold change (FC): inactive

## CCc1ccccc1-c1nnc(Nc2ccc(CC(N)=O)cc2)c2ccccc12
[2]
  fold change (FC): 1.7

## COc1ccccc1-c1nnc(Nc2ccc(CC(N)=O)cc2)c2sccc12
[1]
  fold change (FC): 0.67

## COc1ccccc1-c1nnc(Nc2ccc(CC(N)=O)cc2)c2ccoc12
[1]
  fold change (FC): 0.33

## COc1ccccc1-c1nnc(Nc2ccc(CC(N)=O)c(C)c2)c2c1CCC2
[1]
  fold change (FC): 0.36

## Cc1cccc(-c2nnc(Nc3ccc(CC(N)=O)cc3)c3ccccc23)c1
[2]
  fold change (FC): 1.3

## COc1ccccc1-c1nnc(Nc2ccc(CC(N)=O)cc2)c2ccccc12
[2]
  fold change (FC): 2.7

## NC(=O)Cc1ccc(Nc2nnc(-c3ccccc3OCc3ccccn3)c3sccc23)c(F)c1
[3]
  remaining at 0.5 h: 19%
[4]
  logD: 2.9

## COc1ccccc1-c1nnc(Nc2ccc(CC(N)=O)c(F)c2)c2c1CCC2
[1]
  fold change (FC): 0.56

## CNC(=O)Cc1ccc(Nc2nnc(-c3ccccc3OC)c3c2CCC3)cc1
[1]
  fold change (FC): 0.08

## COCCOc1ccccc1-c1nnc(Nc2ccc(CC(N)=O)cc2F)c2ccsc12
[6]
  AUC(0-t) at 4 h: 9.01 µM·h
[7]
  Emax: 435 mg/dL
[8]
  Cmax: 3.38 µM
[9]
  AUC: Dose-dependent effect
[10]
  Emax: 220 mg/dL
[11]
  Emax: 393 mg/dL
[12]
  Activity: Dose-dependent effect
[13]
  AUC: 1210 mg/dl.hr
[14]
  Cmax: 4.38 µM
[3]
  remaining at 0.5 h: 66%
[15]
  AUC: 1160 mg/dl.hr
[16]
  AUC: 644 mg/dl.hr
[17]
  AUC(0-t) at 4 h: 12.6 µM·h
[18]
  Cmax: 4 µM
[4]
  logD: 2.1
[19]
  Cmax: Dose-dependent effect
[20]
  AUC(0-t) at 4 h: 10.6 µM·h

## CC(C)(C)OC(=O)NCCOCCOc1ccccc1-c1nnc(Nc2ccc(CC(N)=O)cc2F)c2ccsc12
[3]
  remaining at 0.5 h: 15%
[4]
  logD: 3.2

## COc1ccccc1-c1nnc(Nc2ccc(CS(N)(=O)=O)cc2)c2c1CCC2
[1]
  fold change (FC): 0.09

## COc1ccccc1-c1nnc(Nc2ccc(CC(N)=O)cc2)c2oc(C)cc12
[1]
  fold change (FC): inactive

## COc1ccccc1-c1nnc(Nc2ccc(CC(N)=O)cc2C(F)(F)F)c2c1CCC2
[1]
  fold change (FC): 0.12

## COc1ccccc1-c1nnc(Nc2ccc(CCC(N)=O)cc2)c2c1CCC2
[1]
  fold change (FC): inactive

## COc1ccccc1-c1nnc(Nc2ccc(CC(N)=O)cc2)c2c1CCC2
[21]
  fold change (FC): 2
[2]
  fold change (FC): 4.7
[3]
  remaining at 0.5 h: 90%
[4]
  logD: 2.3

## CC(C)(C)NC(=O)NCCOCCOc1ccccc1-c1nnc(Nc2ccc(CC(N)=O)cc2F)c2ccsc12
[3]
  remaining at 0.5 h: 2%
[4]
  logD: 2.9

## COc1ccccc1-c1nnc(Nc2ccc(CC(N)=O)cc2)c2c1CCCC2
[2]
  fold change (FC): 0.9
